Laboratory results as given in US20110301155A1, “INDAZOLE COMPOUNDS FOR ACTIVATING GLUCOKINASE” (priority 2007, published 2011).

Each compound was assayed against T1, GK (recombinant glucokinase, residues 12-465 of the human enzyme) (Homo sapiens, UniProt P35557) (assay: Determination of GK activity value (luminescence assay)). Settings: calculated maximal gain in GK enzyme activity at saturating compound concentration; 5 mM glucose, 5 μM ATP.
T1 construct: FLAG (C-terminal tag of vector pFLAG-CTC; only the vector is printed) (C); made in house; host or cells: Escherichia coli DH10b-T1r (pFLAG-CTC plasmid)
T1 sequence (P35557 12-465): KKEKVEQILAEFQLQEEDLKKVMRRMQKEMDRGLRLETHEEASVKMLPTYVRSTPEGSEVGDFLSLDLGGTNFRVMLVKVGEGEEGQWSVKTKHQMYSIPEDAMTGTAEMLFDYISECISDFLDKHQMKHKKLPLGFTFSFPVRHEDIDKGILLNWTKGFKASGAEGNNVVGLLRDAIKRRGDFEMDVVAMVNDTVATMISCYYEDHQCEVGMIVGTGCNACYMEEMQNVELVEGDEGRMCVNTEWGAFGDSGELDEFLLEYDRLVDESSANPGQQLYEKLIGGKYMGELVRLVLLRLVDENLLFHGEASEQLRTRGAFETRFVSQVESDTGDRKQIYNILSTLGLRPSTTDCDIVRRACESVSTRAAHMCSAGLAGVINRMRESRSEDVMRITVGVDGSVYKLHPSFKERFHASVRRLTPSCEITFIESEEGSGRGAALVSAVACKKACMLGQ
Type: biochemical
Text: DNA encoding residues 12-465 of the full-length sequence of the human enzyme may be amplified by PCR and cloned into the HindIII and EcoRI sites of pFLAG-CTC (Sigma). SEQ.I.D. No. 1 corresponds to residues 12-465 of glucokinase.
The expression of recombinant glucokinase protein may be carried out by transformation and growth of DH10b-T1r E. coli cells incorporating the (pFLAG-CTC) plasmid in LB media. Protein expression can be induced in this system by the addition of IPTG to the culture medium.
Recombinant protein may be isolated from cellular extracts by passage over Sepharose Q Fast Flow resin (Pharmacia). This partially purified GK extract may then be further purified by a second passage over Poros HQ10 (Applied Biosystems). The purity of GK may be determined on denaturing SDS-PAGE gel. Purified GK may then be concentrated to a final concentration of 20.0 mg/ml. After flash freezing in liquid nitrogen, the proteins can be stored at −78° C. in a buffer containing 25 mM TRIS-HCl pH 7.6, 50 mM NaCl, and 0.5 mM TCEP.
The activation properties of compounds for GK may be determined using a black 384-well-plate format under the following reaction conditions: 25 mM Hepes pH 7.2, 25 mM NaCl, 10 mM MgCl2, 0.01% Brij35, 1 mM DTT, 5 μM ATP, 5 mM Glucose 2% DMSO. The amount of ATP consumed may be determined quantitatively by addition of equal volume of luciferase reagent (luciferase+beetle luciferin—KinaseGlo Luminescent Kinase Assay kit from Promega). The luminescence intensity may be measured by using the Analyst HT from LJL Biosystems.
The assay reaction may be initiated as follows: 4 μl of substrate mixture (12.5 μM ATP and 12.5 mM Glucose) was added to each well of the plate, followed by the addition of 2 μl of activator (2 fold serial dilutions for 11 data points for each activator) containing 10% DMSO. 4 μL of 1.25 nM GK solution obtained in Reference Example 3A may be added to initiate the reaction. The reaction mixture may then be incubated at room temperature for 60 min, and quenched and developed by addition of 10 μL of luciferase reagent. Luminescence intensities of the resulting reaction mixtures may be measured after a 10 min incubation at room temperature. The luminescence intensity may be measured by using the Analyst HT from LJL Biosystems.
% ACTmax values may be calculated by non-linear curve fitting of the compound concentrations and luminescence intensities to a standard inhibition/activation equation. % ACTmax represents the calculated maximal gain in GK enzyme activity at a saturating concentration of the compound. % ACTmax values for select compounds of the present invention are given in Table 2.
With `CC(C)Oc1cc(Oc2ccc(S(C)(=O)=O)cc2)c2[nH]nc(Nc3ccn(C)n3)c2c1` [Example 133, 5-isopropoxy-N-(1-methyl-1H-pyrazol-3-yl)-7-(4-(methylsulfonyl)phenoxy)-1H-indazol-3-amine] the “% ACTmax” value was 146.3%.
With `Cn1ccc(Nc2nn(C)c3c(Oc4ccc(S(C)(=O)=O)cc4)cc(-c4ncccc4Cl)cc23)n1` [Example 134, 5-(3-chloropyridin-2-yl)-1-methyl-N-(1-methyl-1H-pyrazol-3-yl)-7-(4-(methylsulfonyl)phenoxy)-1H-indazol-3-amine] the “% ACTmax” value was 24.1%.
For `COCC(O)Cn1ccc(Nc2n[nH]c3c(Oc4ccc(S(C)(=O)=O)cc4)cc(-c4ncccc4Cl)cc23)n1` (stereo not shown) [Example 140, 1-(3-(5-(3-chloropyridin-2-yl)-7-(4-(methylsulfonyl)phenoxy)-1H-indazol-3-ylamino)-1H-pyrazol-1-yl)-3-methoxypropan-2-ol], the “% ACTmax” value was 146.5%.
For `CS(=O)(=O)c1ccc(Oc2cc(-c3ncccc3Cl)cc3c(Nc4ccn(CC(O)CO)n4)n[nH]c23)cc1` (stereo not shown) [Example 131, 3-(3-(5-(3-chloropyridin-2-yl)-7-(4-(methylsulfonyl)phenoxy)-1H-indazol-3-ylamino)-1H-pyrazol-1-yl)propane-1,2-diol], the “% ACTmax” value was 147.8%.
